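Five concentrations, 48 hours, 96-well plates. GI50: concentration for 50% inhibition of growth.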 Calls of active or inactive are those of the source. No stated cut-off is given here; in the data, active = GI50 up to about 1.1 µM and inactive = higher.
Experiments:
Experiment in all cases: NCI anticancer screen, dose series, 48 h
SK-MEL-5 = system: SK-MEL-5
CAKI-1 = system: CAKI-1
Hs-578T = system: Hs-578T
OVCAR-4 = system: OVCAR-4
HOP-92 = system: HOP-92
SK-MEL-28 = system: SK-MEL-28
HCT-15 = system: HCT-15
A549 = system: A549
MOLT-4 = system: MOLT-4
HOP-62 = system: HOP-62
SK-OV-3 = system: SK-OV-3
K562 = system: K562
CCRF-CEM = system: CCRF-CEM
UACC-257 = system: UACC-257
HL-60 = system: HL-60
786-0 = system: 786-0
SR = system: SR
SF-539 = system: SF-539
PC-3 = system: PC-3

Compound | GI50 (SK-MEL-5) | GI50 (CAKI-1) | GI50 (Hs-578T) | GI50 (OVCAR-4) | GI50 (HOP-92) | GI50 (SK-MEL-28) | GI50 (HCT-15) [µM] | GI50 (A549) | GI50 (MOLT-4) | GI50 (HOP-62) | GI50 (SK-OV-3) | GI50 (K562) | GI50 (CCRF-CEM) | GI50 (UACC-257) | GI50 (HL-60) | GI50 (786-0) | GI50 (SR) | GI50 (SF-539) | GI50 (PC-3)
COc1cc2c(cc1OC)C1CN3CCCC3C(O)C1c1cc(OC)c(OC)cc1-2 (stereo not drawn) | > 100 µM (inactive) | > 100 µM (inactive) | > 100 µM (inactive) | > 100 µM (inactive) | > 100 µM (inactive) | > 100 µM (inactive) | > 100 | > 100 µM (inactive) | > 100 µM (inactive) | 40.2 µM (inactive) | > 100 µM (inactive) | > 100 µM (inactive) | 69.3 µM (inactive) | > 100 µM (inactive) | > 100 µM (inactive) | > 100 µM (inactive) | > 100 µM (inactive) | – | –
Cc1ccc2c(c1)C(=O)/C(=C1/CCc3ccc(C)cc31)C2 | > 100 µM (inactive) | – | > 100 µM (inactive) | 30.4 µM (inactive) | > 100 µM (inactive) | > 100 µM (inactive) | > 100 | > 100 µM (inactive) | > 100 µM (inactive) | > 100 µM (inactive) | > 100 µM (inactive) | 76 µM (inactive) | 86.5 µM (inactive) | > 100 µM (inactive) | > 100 µM (inactive) | 46 µM (inactive) | 35.6 µM (inactive) | 54.7 µM (inactive) | –
NCCC(=O)N[C@H](Cc1cc(O)c(O)c(SCC(NC(=O)CC[C@H](N)C(=O)O)C(=O)NCC(=O)O)c1)C(=O)O (stereo partly drawn) | > 50 µM (inactive) | > 50 µM (inactive) | – | > 50 µM (inactive) | > 50 µM (inactive) | > 50 µM (inactive) | > 50 | > 50 µM (inactive) | – | > 50 µM (inactive) | > 50 µM (inactive) | > 50 µM (inactive) | – | > 50 µM (inactive) | – | > 50 µM (inactive) | – | – | > 50 µM (inactive)
Cc1ccc2c(=O)c(C(=O)NNC(=S)NC3CCCCC3)c[nH]c2n1 | 33.7 µM (inactive) | 59.2 µM (inactive) | 64.1 µM (inactive) | 78.9 µM (inactive) | – | 77.8 µM (inactive) | > 100 | > 100 µM (inactive) | 32.7 µM (inactive) | 68.1 µM (inactive) | – | 30.6 µM (inactive) | 99.5 µM (inactive) | > 100 µM (inactive) | 46.9 µM (inactive) | > 100 µM (inactive) | – | – | 45.4 µM (inactive)
CCCCC(=O)Nc1ccc2cc(C(=O)OC)c(ON3C(=O)c4ccccc4C3=O)nc2n1 | 63.8 µM (inactive) | 22.2 µM (inactive) | – | 28.1 µM (inactive) | 26.4 µM (inactive) | 23.2 µM (inactive) | 40.6 | 27.2 µM (inactive) | 28.9 µM (inactive) | 18.6 µM (inactive) | 48.1 µM (inactive) | 33.2 µM (inactive) | 71.3 µM (inactive) | 23.5 µM (inactive) | – | 17 µM (inactive) | 36.4 µM (inactive) | 18 µM (inactive) | 28.4 µM (inactive)
C=C1C[C@H]2C=Nc3cc(OCCCOc4cc5c(cc4OC)C(=O)N4CC(=C)C[C@H]4C=N5)c(OC)cc3C(=O)N2C1 [SJG-136] | < 0.01 µM (active) | < 0.01 µM (active) | 0.0426 µM (active) | 0.0306 µM (active) | 0.00682 µM (active) | 0.0141 µM (active) | 0.124 | 0.0157 µM (active) | 0.000136 µM (active) | 0.0106 µM (active) | 0.0216 µM (active) | < 0.01 µM (active) | < 0.01 µM (active) | 0.0146 µM (active) | < 0.01 µM (active) | < 0.01 µM (active) | < 0.01 µM (active) | < 0.01 µM (active) | –
N#Cc1c(-c2ccccc2)cc(Nc2cccc(C(F)(F)F)c2)n2c1nc1ccccc12 | 0.548 µM (active) | 1.91 µM (inactive) | – | 0.912 µM (active) | 0.206 µM (active) | 9.12 µM (inactive) | 1.38 | – | 0.76 µM (active) | 1.77 µM (inactive) | 1.11 µM (active) | – | – | 0.733 µM (active) | – | 1.54 µM (inactive) | – | 2.22 µM (inactive) | –
NNC(=O)c1nnn(N)c1S | > 100 µM (inactive) | 84.5 µM (inactive) | > 100 µM (inactive) | > 100 µM (inactive) | – | > 100 µM (inactive) | > 100 | > 100 µM (inactive) | > 100 µM (inactive) | > 100 µM (inactive) | > 100 µM (inactive) | 36.8 µM (inactive) | 66.1 µM (inactive) | > 100 µM (inactive) | 1 µM (active) | 93.8 µM (inactive) | – | > 100 µM (inactive) | > 100 µM (inactive)
COC(=O)CCCC(=O)NC1=C(NCc2ccccc2)C(=O)c2ccccc2C1=O | – | > 100 µM (inactive) | > 100 µM (inactive) | 47.9 µM (inactive) | – | > 100 µM (inactive) | 52.4 | 56.5 µM (inactive) | 34 µM (inactive) | – | 45.5 µM (inactive) | 45.6 µM (inactive) | 36.3 µM (inactive) | 29.7 µM (inactive) | 29 µM (inactive) | 63.8 µM (inactive) | 46.5 µM (inactive) | 36.4 µM (inactive) | –
C/C(=N\Nc1nc2ccccc2[nH]1)c1cc2ccccc2cn1 | 0.0494 µM (active) | < 0.01 µM (active) | 0.0612 µM (active) | 0.0443 µM (active) | 0.0755 µM (active) | 0.0853 µM (active) | < 0.0106 | 0.0775 µM (active) | 0.0117 µM (active) | 1.11 µM (active) | 0.0465 µM (active) | 0.0159 µM (active) | < 0.01 µM (active) | 0.0243 µM (active) | < 0.01 µM (active) | 0.048 µM (active) | 0.0281 µM (active) | 0.1 µM (active) | –
CC1(Cc2cc3c(cc2C2(c4ccc([N+](=O)[O-])cc4)OCCO2)OCO3)OCCO1 | 41.7 µM (inactive) | 63.5 µM (inactive) | 71.1 µM (inactive) | 50.2 µM (inactive) | – | > 100 µM (inactive) | 51.1 | 43.8 µM (inactive) | 32.7 µM (inactive) | > 100 µM (inactive) | > 100 µM (inactive) | 61.9 µM (inactive) | 49.3 µM (inactive) | 90.4 µM (inactive) | > 100 µM (inactive) | > 100 µM (inactive) | – | > 100 µM (inactive) | 47.2 µM (inactive)
COc1cc([N+](=O)[O-])c(OC)c2c(Nc3ccc(S(=O)(=O)O)c4cc(S(=O)(=O)O)cc(S(=O)(=O)O)c34)cc(C)nc12 | > 100 µM (inactive) | > 100 µM (inactive) | > 100 µM (inactive) | – | – | > 100 µM (inactive) | – | > 100 µM (inactive) | > 100 µM (inactive) | > 100 µM (inactive) | > 100 µM (inactive) | – | > 100 µM (inactive) | > 100 µM (inactive) | > 100 µM (inactive) | > 100 µM (inactive) | – | > 100 µM (inactive) | > 100 µM (inactive)
NNC(=O)Cn1c2ccc(Br)cc2c2nc3ccccc3nc21 | > 100 µM (inactive) | > 100 µM (inactive) | – | – | – | 47.8 µM (inactive) | – | 94.8 µM (inactive) | 11.7 µM (inactive) | 19.8 µM (inactive) | 43.7 µM (inactive) | 33.8 µM (inactive) | – | 76.4 µM (inactive) | – | 17.9 µM (inactive) | > 100 µM (inactive) | > 100 µM (inactive) | > 100 µM (inactive)

From ChEMBL document CHEMBL1201862, “PubChem BioAssay data set” (2004)
